Measurements published in patent US10150759B2, “1,4-pyridone bicycic heteroaryl compounds” (Epizyme, Inc., priority 2012, dated 2018).

Columns and labels:
[1] = biological target: wild-type EZH2 (PRC2 enzyme) (Homo sapiens (Human), UniProt Q15910); experiment: PRC2 enzyme assay on peptide substrate (wild-type EZH2); assay type: biochemical; conditions: wild-type PRC2 4 nM, H3K27me0 peptide substrate, 3H-SAM; read-out: WT EZH2 IC50
Excerpt: S-adenosylmethionine (SAM), S-adenosylhomocyteine (SAH), bicine, KCl, Tween20, dimethylsulfoxide (DMSO) and bovine skin gelatin (BSG) were purchased from Sigma-Aldrich at the highest level of purity possible. Dithiothreitol (DTT) was purchased from EMD. ^3H-SAM was purchased from American Radiolabeled Chemicals with a specific activity of 80 Ci/mmol. 384-well streptavidin Flashplates were purchased from PerkinElmer.
Peptides representative of human histone H3 residues 21-44 containing either an unmodified lysine 27 (H3K27me0) or dimethylated lysine 27 (H3K27me2) were synthesized with a C-terminal G(K-biotin) linker-affinity tag motif and a C-terminal amide cap by 21st Century Biochemicals. The peptides were high-performance liquid chromatography (HPLC) purified to greater than 95% purity and confirmed by liquid chromatography mass spectrometry (LC-MS). The sequences are listed below.
Human PRC2 enzymes were purified as 4-component enzyme complexes co-expressed in Spodoptera frugiperda (sf9) cells using a baculovirus expression system. The subunits expressed were wild-type EZH2 (NM_004456) or EZH2 Y641F, N, H, S or C mutants generated from the wild-type EZH2 construct, EED (NM_003797), Suz12 (NM_015355) and RbAp48 (NM_005610). The EED subunit contained an N-terminal FLAG tag that was used to purify the entire 4-component complex from sf9 cell lysates. The purity of the complexes met or exceeded 95% as determined by SDS-PAGE and Agilent Bioanalyzer analysis. Concentrations of enzyme stock concentrations (generally 0.3-1.0 mg/mL) was determined using a Bradford assay against a bovine serum albumin (BSA) standard.
The assays were all performed in a buffer consisting of 20 mM bicine (pH=7.6), 0.5 mM DTT, 0.005% BSG and 0.002% Tween20, prepared on the day of use. […] The plates were then read in a PerkinElmer TopCount platereader to measure the quantity of ^3H-labeled peptide bound to the Flashplate surface, measured as disintegrations per minute (dpm) or alternatively, referred to as counts per minute (cpm). […]

[2] = tested on: H3K27me3 in WSU-DLCL2 cells; experiment: WSU-DLCL2 methylation assay (H3K27me3 ELISA); assay type: cell-based; conditions: Homo sapiens, WSUDLCL2, 96 hours incubation, H3K27me3 normalized to total H3
Excerpt: WSU-DLCL2 suspension cells were purchased from DSMZ (German Collection of Microorganisms and Cell Cultures, Braunschweig, Germany). RPMI/Glutamax Medium, Penicillin-Streptomycin, Heat Inactivated Fetal Bovine Serum, and D-PBS were purchased from Life Technologies, Grand Island, N.Y., USA. Extraction Buffer and Neutralization Buffer (5×) were purchased from Active Motif, Carlsbad, Calif., USA. Rabbit anti-Histone H3 antibody was purchased from Abcam, Cambridge, Mass., USA. Rabbit anti-H3K27me3 and HRP-conjugated anti-rabbit-IgG were purchased from Cell Signaling Technology, Danvers, Mass., USA. TMB “Super Sensitive” substrate was sourced from BioFX Laboratories, Owings Mills, Md., USA. IgG-free Bovine Serum Albumin was purchased from Jackson ImmunoResearch, West Grove, Pa., USA. PBS with Tween (10×PBST) was purchased from KPL, Gaithersburg, Md., USA. Sulfuric Acid was purchased from Ricca Chemical, Arlington, Tex., USA. Immulon ELISA plates were purchased from Thermo, Rochester, N.Y., USA. V-bottom cell culture plates were purchased from Corning Inc., Corning, N.Y., USA. V-bottom polypropylene plates were purchased from Greiner Bio-One, Monroe, N.C., USA.
WSU-DLCL2 suspension cells were maintained in growth medium (RPMI 1640 supplemented with 10% v/v heat inactivated fetal bovine serum and 100 units/mL penicillin-streptomycin) and cultured at 37° C. under 5% CO2. […]

wild-type EZH2 (PRC2 enzyme), sequence (Q15910 other isoform, or with tags, fused parts or gaps): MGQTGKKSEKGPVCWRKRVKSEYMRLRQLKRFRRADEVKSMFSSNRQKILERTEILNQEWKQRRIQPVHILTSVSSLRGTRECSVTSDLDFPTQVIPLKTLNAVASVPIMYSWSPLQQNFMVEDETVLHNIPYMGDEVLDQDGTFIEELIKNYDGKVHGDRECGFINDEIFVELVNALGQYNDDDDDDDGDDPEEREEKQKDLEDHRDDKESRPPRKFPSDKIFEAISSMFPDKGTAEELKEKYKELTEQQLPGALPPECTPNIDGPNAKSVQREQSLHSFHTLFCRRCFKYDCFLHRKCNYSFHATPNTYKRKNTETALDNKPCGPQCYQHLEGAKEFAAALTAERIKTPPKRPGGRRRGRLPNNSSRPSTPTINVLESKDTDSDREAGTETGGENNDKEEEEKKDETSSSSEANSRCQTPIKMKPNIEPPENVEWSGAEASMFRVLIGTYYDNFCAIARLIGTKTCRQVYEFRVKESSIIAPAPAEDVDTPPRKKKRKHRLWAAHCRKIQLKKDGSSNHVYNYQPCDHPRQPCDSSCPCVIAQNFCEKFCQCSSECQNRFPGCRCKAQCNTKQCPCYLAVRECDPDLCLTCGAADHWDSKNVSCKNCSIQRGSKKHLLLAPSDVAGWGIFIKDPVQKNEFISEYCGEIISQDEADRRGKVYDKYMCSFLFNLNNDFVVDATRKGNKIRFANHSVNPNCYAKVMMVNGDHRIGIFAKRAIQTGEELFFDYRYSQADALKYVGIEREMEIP
wild-type EZH2 (PRC2 enzyme), sequence (O75530 whole entry partner): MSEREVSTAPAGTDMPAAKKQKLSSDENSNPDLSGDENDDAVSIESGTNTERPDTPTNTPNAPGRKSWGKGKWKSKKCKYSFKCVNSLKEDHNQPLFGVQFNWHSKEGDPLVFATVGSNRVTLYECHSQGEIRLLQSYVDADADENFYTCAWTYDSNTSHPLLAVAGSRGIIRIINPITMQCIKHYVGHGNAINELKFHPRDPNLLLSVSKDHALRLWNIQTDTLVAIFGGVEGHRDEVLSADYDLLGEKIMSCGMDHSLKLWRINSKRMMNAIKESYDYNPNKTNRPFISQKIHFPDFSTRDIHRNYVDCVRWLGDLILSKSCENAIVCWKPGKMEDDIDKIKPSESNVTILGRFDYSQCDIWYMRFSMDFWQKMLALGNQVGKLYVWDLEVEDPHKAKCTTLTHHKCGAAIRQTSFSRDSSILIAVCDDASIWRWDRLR
wild-type EZH2 (PRC2 enzyme), sequence (Q15022 whole entry partner): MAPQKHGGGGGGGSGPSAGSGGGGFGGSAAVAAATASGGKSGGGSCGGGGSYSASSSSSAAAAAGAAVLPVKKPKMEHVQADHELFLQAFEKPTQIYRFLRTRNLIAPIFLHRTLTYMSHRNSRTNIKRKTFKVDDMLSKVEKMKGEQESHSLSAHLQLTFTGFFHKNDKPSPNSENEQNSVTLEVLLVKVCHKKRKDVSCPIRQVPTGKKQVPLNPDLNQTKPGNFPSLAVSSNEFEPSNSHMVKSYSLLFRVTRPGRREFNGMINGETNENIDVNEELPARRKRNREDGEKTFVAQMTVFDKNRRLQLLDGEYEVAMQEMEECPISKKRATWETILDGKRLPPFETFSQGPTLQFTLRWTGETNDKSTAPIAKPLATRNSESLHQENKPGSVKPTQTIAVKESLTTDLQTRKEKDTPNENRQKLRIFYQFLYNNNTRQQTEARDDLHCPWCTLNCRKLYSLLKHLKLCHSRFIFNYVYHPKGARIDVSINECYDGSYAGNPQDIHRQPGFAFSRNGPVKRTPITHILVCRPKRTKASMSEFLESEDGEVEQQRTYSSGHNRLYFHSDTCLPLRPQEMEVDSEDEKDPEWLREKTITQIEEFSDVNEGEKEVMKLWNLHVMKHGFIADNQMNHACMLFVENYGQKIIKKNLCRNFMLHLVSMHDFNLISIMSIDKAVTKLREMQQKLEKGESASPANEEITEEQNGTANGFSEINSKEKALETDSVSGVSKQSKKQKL
wild-type EZH2 (PRC2 enzyme), sequence (Q09028 whole entry partner): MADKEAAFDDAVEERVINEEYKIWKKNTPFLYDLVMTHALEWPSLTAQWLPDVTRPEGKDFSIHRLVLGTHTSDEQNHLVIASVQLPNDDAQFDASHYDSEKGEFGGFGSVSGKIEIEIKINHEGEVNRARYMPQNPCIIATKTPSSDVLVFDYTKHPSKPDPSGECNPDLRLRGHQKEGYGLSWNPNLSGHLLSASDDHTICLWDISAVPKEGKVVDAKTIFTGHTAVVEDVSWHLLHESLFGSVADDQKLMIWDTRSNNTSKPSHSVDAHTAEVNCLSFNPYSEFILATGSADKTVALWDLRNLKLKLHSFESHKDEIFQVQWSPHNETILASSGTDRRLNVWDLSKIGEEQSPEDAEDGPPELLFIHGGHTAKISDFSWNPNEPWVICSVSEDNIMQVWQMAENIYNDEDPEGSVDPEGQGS

Row | SMILES | IC50 [1] | IC50 [2]
1 | Cc1cc(=O)c(CNC(=O)c2cc(C3=CC(C)(C)NC(C)(C)C3)nc3c2cnn3C(C)C)c(C)[nH]1 [Compound 1, N-((2,6-dimethyl-4-oxo-1,4-dihydropyridin-3-yl)methyl)-1-isopropyl-6-(2,2,6,6-tetramethyl-1,2,3,6-tetrahydropyridin-4-yl)-1H-pyrazolo[3,4-b]pyridine-4-carboxamide] | 6.6 µM | –
2 | Cc1cc(=O)c(CNC(=O)c2cc(C3CC(C)(C)NC(C)(C)C3)nc3c2cnn3C(C)C)c(C)[nH]1 [Compound 2, N-((2,6-dimethyl-4-oxo-1,4-dihydropyridin-3-yl)methyl)-1-isopropyl-6-(2,2,6,6-tetramethylpiperidin-4-yl)-1H-pyrazolo [3,4-b]pyridine-4-carboxamide] | 7.1 µM | –
3 | CCC(C)n1cc(C)c2c(C(=O)NCc3c(C)[nH]c(C)cc3=O)cc(-c3ccc(N4CCNCC4)nc3)cc21 (stereo not shown) [Compound 4, 1-(sec-butyl)-N-((2,6-dimethyl-4-oxo-1,4-dihydropyridin-3-yl)methyl)-3-methyl-6-(6-(piperazin-1-yl)pyridin-3-yl)-1H-indole-4-carboxamide] | 0.028 µM | 11.9 µM
